Here are results for 28 molecules from patent US8673929B2, “4,6-di- and 2,4,6-trisubstituted quinazoline derivatives and pharmaceutical compositions useful for treating viral infections” (priority 2006, dated 2014).

A short description of data set [1]: CC50 assay in the anti-HCV replicon assay (CellTiter-Glo). The data set is classed as cell-based, human. The note with it: human, Huh-7 hepatoma cells harbouring an HCV replicon; Huh-7 HCV replicon cells, 3 days incubation, CellTiter-Glo luminescence. In outline: (§1)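 Huh-7 cells harbouring an HCV replicon (6000/well) incubated 3 days at 37° C with 3-fold serially diluted compound (0.5% DMSO final where used). EC50 from luciferase luminescence of lysed cells; CC50 from CellTiter-Glo luminescence in parallel plates.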

Data set [2] relates to HCV replicon. Kind of data set: Anti-HCV replicon assay, EC50 (luciferase readout). The note with it: Hepatitis C virus, 72 h; Huh-7 HCV replicon cells, 3 days incubation, luciferase luminescence. It counts as cell-based. In outline:
as §1

Some results are limits rather than exact numbers.

Consider `CCOc1nc(N)nc2ccc(-c3ccc(F)cc3)cc12` [Example 19, 2-amino-4-ethoxy-6-(4-fluorophenyl)-quinazoline], for which the CC50 at 3 days in data set [1] was > 20 µM. Further, the EC50 in data set [2] lay in the range of 1 to 10 µM.
The matching figures for `CCOc1ncnc2ccc(-c3ccc(F)cc3)cc12` [Example 34, 4-ethoxy-6-(4-fluorophenyl)-quinazoline]: > 20 µM and 0.3 to 1 µM.
On the same counts, the results for `CC(C)Oc1nc(N)nc2ccc(-c3ccc(F)c(F)c3)cc12` [Example 91, 6-(3,4-Difluoro-phenyl)-4-isopropoxy-quinazolin-2-ylamine] are 10 to 20 µM and 0.3 to 1 µM.
The matching figures for `Nc1nc(OCCN2CCOCC2)c2cc(-c3ccc(O)cc3)ccc2n1` [Example 235, 4-[2-Amino-4-(2-morpholin-4-yl-ethoxy)-quinazolin-6-yl]-phenol]: > 20 µM and 1 to 10 µM.
For the molecule `CC(C)NC(=O)c1ccc(-c2ccc3nc(N)nc(OC(C)C)c3c2)cc1` [Example 176, 4-(2-Amino-4-isopropoxy-quinazolin-6-yl)-N-isopropyl-benzamide], in data set [1], the CC50 at 3 days was in the range of 10 to 20 µM. In data set [2], the EC50 is < 0.3 µM.
As to `CC(C)Oc1nc(N)nc2ccc(-c3ccc(C(=O)N4CCOCC4)cc3)cc12` [Example 128, [4-(2-Amino-4-isopropoxy-quinazolin-6-yl)-phenyl]-morpholin-4-yl-methanone], in data set [1], the CC50 at 3 days was > 20 µM. In addition, the EC50 in data set [2] was 1 to 10 µM.
The matching figures for `CCOc1nc(NCc2ccc(S(N)(=O)=O)cc2)nc2ccc(-c3ccc(NC(=O)N4CCCC4)cc3)cc12` [Example 253, pyrrolidine-1-carboxylic acid {4-[4-ethoxy-2-(4-sulfamoyl-benzylamino)-quinazolin-6-yl]-phenyl}-amide]: 10 to 20 µM and < 0.3 µM.
The matching figures for `CC(C)Oc1nc(N)nc2ccc(-c3ccc(F)c(F)c3F)cc12` [Example 97, 4-Isopropoxy-6-(2,3,4-trifluoro-phenyl)-quinazolin-2-ylamine]: > 20 µM and 0.3 to 1 µM.
The matching figures for `CC(C)Oc1nc(N)nc2ccc(-c3cccc(Cl)c3)cc12` [Example 82, 6-(3-Chloro-phenyl)-4-isopropoxy-quinazolin-2-ylamine]: > 20 µM and 1 to 10 µM.
For `CC(C)Oc1nc(N)nc2ccc(-c3ccc(C(=O)NC4CC4)cc3)cc12` [Example 185, 4-(2-Amino-4-isopropoxy-quinazolin-6-yl)-N-cyclopropyl-benzamide], in data set [1], the CC50 at 3 days is < 10 µM. In data set [2], the EC50 is < 0.3 µM.
On the same counts, the results for `Nc1nc(OCCN2CCOCC2)c2cc(-c3cc4ccccc4o3)ccc2n1` [Example 238, 6-Benzofuran-2-yl-4-(2-morpholin-4-yl-ethoxy)-quinazolin-2-ylamine] are 10 to 20 µM and 1 to 10 µM.
For `CCOc1nc(N)nc2ccc(-c3ccc(C(=O)NC(C)C)cc3)cc12` [Example 155, 4-(2-Amino-4-ethoxy-quinazolin-6-yl)-N-isopropyl-benzamide], the CC50 at 3 days in data set [1] is 10 to 20 µM. Also, the EC50 in data set [2] was 0.3 to 1 µM.
The matching figures for `CCOc1nc(N)nc2ccc(-c3cccc(O)c3)cc12` [Example 166, 3-(2-Amino-4-ethoxy-quinazolin-6-yl)-phenol]: 10 to 20 µM and 1 to 10 µM.
The matching figures for `Nc1nc(OCC2CCC2)c2cc(-c3cccnc3)ccc2n1` [Example 118, 4-Cyclobutylmethoxy-6-pyridin-3-yl-quinazolin-2-ylamine]: 10 to 20 µM and 0.3 to 1 µM.
The matching figures for `Nc1nc(OCC2CCC2)c2cc(-c3ccc(C(F)(F)F)cc3Cl)ccc2n1` [Example 124]: > 20 µM and 1 to 10 µM.
For the molecule `CCOc1nc(N)nc2ccc(-c3ccc(O)cc3)cc12` [Example 51, 4-(2-Amino-4-ethoxy-quinazolin-6-yl)-phenol], the CC50 at 3 days in data set [1] is 10 to 20 µM. Further, the EC50 in data set [2] lay in the range of 0.3 to 1 µM.
On the same counts, the results for `CCOc1nc(N)nc2ccc(-c3ccc(C(=O)NC)cc3)cc12` [Example 43, 4-(2-Amino-4-ethoxy-quinazolin-6-yl)-N-methyl-benzamide] are > 20 µM and < 0.3 µM.
The matching figures for `COCCOc1nc(N)nc2ccc(-c3ccc(Cl)c(C(F)(F)F)c3)cc12` [Example 69, 6-(4-Chloro-3-trifluoromethyl-phenyl)-4-(2-methoxy-ethoxy)-quinazolin-2-ylamine]: > 20 µM and 1 to 10 µM.
On the same counts, the results for `Nc1nc(OCCF)c2cc(-c3ccc(C(=O)NC4CCCC4)cc3)ccc2n1` [Example 201, 4-[2-Amino-4-(2-fluoro-ethoxy)-quinazolin-6-yl]-N-cyclopentyl-benzamide] are 10 to 20 µM and 1 to 10 µM.
As to `CC(C)N1CCC(NC(=O)c2ccc(-c3ccc4nc(N)nc(O[C@@H]5CCOC5)c4c3)cc2)CC1` [Example 225, (R)-4-[2-Amino-4-(tetrahydro-furan-3-yloxy)-quinazolin-6-yl]-N-(1-isopropyl-piperidin-4-yl)-benzamide], in data set [1], the CC50 at 3 days was > 20 µM. Further, the EC50 in data set [2] lay in the range of 1 to 10 µM.
On the same counts, the results for `Nc1nc(OCC2CCC2)c2cc(-c3ccc(Cl)cc3Cl)ccc2n1` [Example 108, 4-Cyclobutylmethoxy-6-(2,4-dichloro-phenyl)-quinazolin-2-ylamine] are > 20 µM and 1 to 10 µM.
On the same counts, the results for `CC(C)Oc1nc(N)nc2ccc(-c3cc(F)cc(F)c3)cc12` [Example 94, 6-(3,5-Difluoro-phenyl)-4-isopropoxy-quinazolin-2-ylamine] are > 20 µM and 1 to 10 µM.
The matching figures for `CC(C)CNC(=O)c1ccc(-c2ccc3nc(N)nc(OCCO)c3c2)cc1` [Example 188, 4-[2-Amino-4-(2-hydroxy-ethoxy)-quinazolin-6-yl]-N-isobutyl-benzamide]: > 20 µM and 1 to 10 µM.
As to `CC(C)Oc1nc(N)nc2ccc(-c3cccnc3)cc12` [Example 90, 4-Isopropoxy-6-pyridin-3-yl-quinazolin-2-ylamine], the CC50 at 3 days in data set [1] is > 20 µM. Further, the EC50 in data set [2] fell in the range of 0.3 to 1 µM.
The matching figures for `CC(C)Oc1nc(N)nc2ccc(-c3cc4ccccc4s3)cc12` [Example 83, 6-Benzo[b]thiophen-2-yl-4-isopropoxy-quinazolin-2-ylamine]: 10 to 20 µM and 1 to 10 µM.
The matching figures for `Nc1nc(OCC2CCC2)c2cc(-c3ccc(F)cc3Cl)ccc2n1` [Example 110, 4-Cyclobutylmethoxy-6-(2-chloro-4-fluoro-phenyl)-quinazolin-2-ylamine]: 10 to 20 µM and 1 to 10 µM.
On the same counts, the results for `N#Cc1ccc(-c2ccc3nc(N)nc(OCC4CCC4)c3c2)cc1` [Example 122, 4-(2-Amino-4-cyclobutylmethoxy-quinazolin-6-yl)-benzonitrile] are > 20 µM and 1 to 10 µM.
In the case of `CC(C)Oc1nc(N)nc2ccc(-c3ccc(F)cc3)cc12` [Example 21, 2-amino-6-(4-fluorophenyl)-4-isopropoxy-quinazoline], in data set [1], the CC50 at 3 days was > 20 µM. The same molecule displayed an EC50 in data set [2] of 1 to 10 µM.
